Test results taken from PubChem BioAssay (NCI).
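Assay format: 96-well plates, 48-hour exposure. GI50 marks 50% less growth. TGI is the concentration that stops growth completely.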

Tests used:
Assay in all cases: NCI tumour cell line growth inhibition, 48 h
[1] = system: NCI/ADR-RES ovarian
[2] = system: SK-MEL-5 melanoma
[3] = system: EKVX NSCLC
[4] = system: UO-31 renal
[5] = system: SR leukemia
[6] = system: IGROV1 ovarian
[7] = system: SN12C renal
[8] = system: NCI-H460 lung
[9] = system: HCT-15 colon
[10] = system: RPMI-8226 leukemia

Structure (SMILES)	GI50 [1] [µM]	TGI [1] [µM]	GI50 [2] [µM]	TGI [2] [µM]	GI50 [3] [µM]	TGI [3] [µM]	GI50 [4] [µM]	TGI [4] [µM]	GI50 [5] [µM]	TGI [5] [µM]	GI50 [6] [µM]	TGI [6] [µM]	GI50 [7] [µM]	TGI [7] [µM]	GI50 [8] [µM]	TGI [8] [µM]	GI50 [9] [µM]	TGI [9] [µM]	GI50 [10] [µM]	TGI [10] [µM]
COc1cc(F)cc([C@@H](CO)NC(=O)[C@@H](C)N2Cc3ccc(-c4nc(NC5CCOCC5)ncc4Cl)cc3C2=O)c1	16.3	78.2	0.405	14.8	0.108	66	0.406	33.6	10.8	70.7	0.0409	35.6	1.33	> 100	6.14	> 100	6.08	> 86.7	1.83	38.1
CC1(C)N=C(N)N=C(N)N1c1ccc(CCc2ccc(Cl)cc2S(=O)(=O)F)c(Cl)c1	> 100	> 100	4.39	16.3	11.3	> 100	> 100	> 100	6.05	76.5	0.942	> 100	7.98	> 100	3.12	> 100	92.8	> 100	10.2	38.5
Clc1cccc(N2CCN(CCN3CCc4c([nH]c5ccccc45)C3c3cccnc3)CC2)c1 (stereo not drawn)	–	> 100	–	> 100	–	99.7	–	> 100	–	> 100	–	> 100	–	> 92.2	–	> 100	–	> 100	–	> 84.1
COc1ccc(-c2nn(-c3cccc(Cl)c3)cc2-c2c(C#N)c(=O)n3[nH]c(-c4ccc(C)cc4)nc3c2C#N)cc1	9.43	37.5	6.06	14	1.62	9.2	3.39	11.2	1.43	10.1	3.51	11.3	4.52	11.5	1.85	8.31	9.95	> 50	4.57	33
Clc1ccc(C(c2ccc(Cl)cc2)N2CCNCC2)cc1	–	13.6	–	3.64	–	10.4	–	4.4	–	4.41	–	3.17	–	8.52	–	4.65	–	8.79	–	4.66
CN1CCN(C(=O)c2c(NC(=O)NS(=O)(=O)c3ccccc3)sc3c2CCCCC3)CC1	34	> 100	20.5	40.2	33.7	98.7	> 100	> 100	27.5	> 100	> 100	> 100	25	63.8	51	> 100	26.3	74.6	21.8	64.8
O=C(Nc1ccc2[nH]c(C(=O)N3CC(CCl)c4c3cc([N+](=O)[O-])c3ccccc43)cc2c1)c1cc2ccccc2o1 (stereo not drawn)	> 1100	> 1100	> 1100	> 1100	> 1100	> 1100	> 1100	> 1100	35.2	> 1100	> 1100	> 1100	> 1100	> 1100	21	> 1100	> 1100	> 1100	> 1100	> 1100
CN[C@@H]1C[C@H]2O[C@@](C)([C@@H]1OC)n1c3ccccc3c3c4c(c5c6ccccc6n2c5c31)C(=O)N[C@H]4O	0.167	0.907	0.102	1.39	0.059	> 10	0.0116	0.0547	0.0336	1.92	0.0188	0.102	–	1.7	0.0471	1.23	0.157	> 3.31	0.186	1.49
COc1ccc2c(c1)c1nc3cc(C)c(C)cc3nc1n2CCN(C)C	0.599	2.46	1.62	3.01	1.16	2.85	0.541	2.1	0.428	4.81	0.464	1.97	0.534	1.99	0.369	1.39	0.417	1.77	0.453	2.35
O=CC(Br)C(Br)c1ccccc1 (stereo not drawn)	4.77	27.7	3.58	13.8	–	–	1.48	3.07	0.445	2.81	11	26	3.06	11.4	14.5	31.2	0.913	2.93	2.14	5.39
Oc1ccc2ccccc2c1C1NN=C(c2ccccc2)S1 (stereo not drawn)	0.383	62.8	0.342	2	0.633	> 94.7	0.409	> 20.4	0.473	> 100	0.485	30.3	0.61	35.7	0.34	11	0.399	> 50.8	0.237	> 100
COc1ccc([I+]c2ccccc2)cc1	> 100	> 100	2.61	11.5	–	–	26.8	> 100	1.78	> 100	8.99	> 100	40.3	> 100	5.17	> 100	42.1	> 100	2.04	> 78.1
O=C1C(Cl)=C(Nc2cccc(O)c2)C(=O)N1Cc1ccc(Cl)cc1	1.58	10.2	5.69	21.1	13.6	48.6	10.3	> 100	0.358	14.8	3.93	40	2.72	8.5	2.87	14	–	–	1.07	> 100
